# Measurements reported in paper PMC11396935, “Exploration of Compounds with 2-Phenylbenzo[d]oxazole Scaffold as Potential Skin-Lightening Agents through Inhibition of Melanin Biosynthesis and Tyrosinase Activity” (Molecules, 2024).
# Like-named read-outs stand apart in the source and are kept apart here.
# How the values were obtained:
# [1] = ABTS radical cation scavenging assay; conditions: 100 μM
# Method: For ABTS^+• scavenging experiments, ABTS^+• was generated by oxidizing ABTS using potassium persulfate. All test samples (Trolox [TR; positive material] and 1–15) were used at a final concentration of 100 μM. […] Both compounds share a common catechol structure. […] Similar results were obtained in the DPPH radical scavenging experiment. […] Compounds 4, 9, and 14, bearing a 4-hydroxy-3-methoxyphenyl, scavenged ABTS^+• moderately (23–51%).
# 3.15. 2,2′-Azino-bis(3-ethylbenzothiazoline-6-sulfonic Acid) (ABTS) Radical Cation Scavenging Assay
# The effect of the 2-phenylbenzoxazole compounds 1–15 on radical scavenging was assessed using an ABTS assay, as previously reported. An ABTS aqueous solution (7 mM) was mixed with a K2S2O8 aqueous solution (2.45 mM) in equal volumes (each 20 mL) and incubated in the dark for 20 h at 25 °C to generate ABTS^+•. The ABTS^+• solution was then diluted with pure EtOH to adjust the absorbance of the solution to 0.7 ± 0.02 at 730 nm. The test samples (1–15 and Trolox [positive control]) were dissolved in a co-solvent of EtOH and DMSO (9:1, v/v) to make a 1 mM solution. The diluted ABTS^+• solution was mixed with the test sample solution at a volume ratio of 9:1 (90 μL:10 μL) and the mixture was stored for 2 min at 20 °C in the dark. The optical density was measured at 730 nm using an ELISA reader at 1 min intervals for 10 min. All test samples were used at a final concentration of 100 µM.
# ABTS^+• radical scavenging activity (%) = [(ODcon − ODsam)/ODcon] × 100, where ODsam and ODcon represent the absorbances of the test sample and the control, respectively.
# mushroom tyrosinase = target: T1, mushroom tyrosinase (Agaricus bisporus, UniProt C7FF04); experiment: Mushroom tyrosinase activity inhibition assay (L-tyrosine or L-dopa as substrate); type: biochemical; conditions: mushroom tyrosinase, 37 °C, mean ± SEM of triplicates
# T1 construct: purchased Sigma-Aldrich (St. Louis, MO, USA)
# Method: 3.3. Tyrosinase Activity Assay Using Mushroom Tyrosinase
# The tyrosinase inhibitory activity of the 2-phenylbenzoxazoles was evaluated using a mushroom tyrosinase activity assay, following a previously described method. An aqueous substrate mixture, consisting of phosphate buffer (pH 6.5; 17.2 mM) and L-tyrosine or L-dopa (345 μM), was prepared. A 96-well plate containing the test sample in dimethyl sulfoxide (DMSO) solution (10 μL), aqueous mushroom tyrosinase solution (20 μL; 200 units), and aqueous substrate mixture (170 μL) in each well was incubated at 37 °C for 15 min for L-dopa and 30 min for L-tyrosine, respectively.
# [2] = ROS scavenging assay (SIN-1/DCFH); conditions: 40 μM; SIN-1 10 μM; 30 min
# Method: For ROS scavenging experiments, test samples (1–15 and Trolox [positive control]; 40 μM) containing 3-morpholinosydnonimine (SIN-1; 10 μM) were mixed with a 2′,7′-dichlorodihydrofluorescein (DCFH) solution. After 30 min, the ROS scavenging activity of the test samples was assessed.
# 3.16. Reactive Oxygen Species (ROS) Scavenging Assay
# The ability of compounds 1–15 to remove ROS was assayed as previously reported. […] A 3-morpholinosydnonimine (SIN-1) solution (10 μL, 250 μM) and phosphate buffer (180 μL) were mixed with a test sample (1–15; 10 μL, 1 mM) in DMSO solution or Trolox (10 μL, 1 mM; positive control) in each well of a 96-well black plate and left in the dark 25 °C for 5 min. The SIN-1-test sample mixture was then combined with the generated DCFH solution (50 μL). Fluorescence was measured in 5 min intervals for 30 min at 530 nm using a microplate reader (Berthold Advances GmbH & Co., Bad Wildbad, Germany) with excitation at 485 nm.
# [3] = DPPH radical scavenging assay; conditions: 500 μM, 30 min in the dark
# Method: The DPPH radical scavenging activity was assessed by mixing DPPH solution with compounds 1–15 and incubating them in the dark for 30 min. All test samples were evaluated at 500 μM.
# 3.14. 2,2′-Diphenyl-1-picrylhydrazyl (DPPH) Radical Scavenging Assay
# As previously reported, the ability of compounds 1–15 to remove DPPH radicals was evaluated. A 0.2 mM methanolic DPPH solution was mixed with a 5 mM L-ascorbic acid aqueous solution or 5 mM DMSO solution of 1–15 at a ratio of […] (v/v, 180 μL:20 μL) in each well of a 96-well microplate. After incubating the microplate in the dark for 30 min, the optical density of each well was measured at 517 nm using an ELISA reader. DPPH scavenging activity (%) = (OD[control] − OD[sample]) × 100/OD[control].
# zebrafish larvae [4] = experiment: Melanin content in zebrafish larvae; type: in vivo, zebrafish (Danio rerio); conditions: compound 8 0.025 mM; kojic acid 20 mM; treated 28 hpf, read 74 hpf
# Method: (§1) . Zebrafish embryos obtained by natural mating were dechorionated at 24 hpf and treated with compound 8 (0.025 mM) or kojic acid (20 mM) at 28 hpf. After 46 h, the melanin content and tyrosinase activity were determined.
# (§2) 3.13. Measurement of Melanin Content and Tyrosinase Activity in Zebrafish Larvae
# (§3) The effects of the 2-phenylbenzo[d]oxazole compound 8 on the melanin content and tyrosinase activity in the zebrafish larvae were assessed using a previously defined procedure with minor modifications. To quantify the melanin content in the zebrafish larvae, zebrafish embryos were obtained through natural mating and operated in a similar manner to the in vivo depigmentation experiment (25 zebrafish embryos per well in a 24-well plate; dechorionation at 24 hpf; test sample treatment (8 [0.025 mM] and kojic acid [20 mM; positive control]) at 28 hpf). Melanin quantification and tyrosinase activity were quantified at 74 hpf. For melanin quantification, the zebrafish larvae were lysed in RIPA buffer (Biosesang, Gyeonggi-do, Korea) and homogenized using a sonicator. […] The absorbance was measured at 405 nm using a microplate reader. For the tyrosinase activity measurement, the supernatants were transferred to new Eppendorf tubes and the protein was quantified using a Pierce BCA protein assay kit, with the absorbance being measured at 570 nm using a microplate reader. […]
# [5] = tested on: B16F10 tyrosinase in situ; conditions: compounds 1, 2, 5 μM; kojic acid 5 μM; α-MSH + IBMX 72 h; excess L-dopa
# zebrafish larvae [6] = experiment: In vivo depigmentation experiment using zebrafish embryos; conditions: kojic acid 20 mM; compound 8 0.025 mM; compound 13 0.025 and 0.05 mM; 76 hpf
# [7] = tested on: tyrosinase activity in zebrafish larvae; experiment: Tyrosinase activity in zebrafish larvae; type: in vivo, zebrafish (Danio rerio); conditions: compound 8 0.025 mM; kojic acid 20 mM; treated 28 hpf, read 74 hpf
# Method: as §1, §2, §3
# [8] = substrate L-dopa, 15 min, read-out: IC50 Values, L-Dopa
# [9] = substrate L-tyrosine, 30 min, read-out: IC50 Values, L-Tyrosine
# T1 sequence (C7FF04 1-392 limits assumed): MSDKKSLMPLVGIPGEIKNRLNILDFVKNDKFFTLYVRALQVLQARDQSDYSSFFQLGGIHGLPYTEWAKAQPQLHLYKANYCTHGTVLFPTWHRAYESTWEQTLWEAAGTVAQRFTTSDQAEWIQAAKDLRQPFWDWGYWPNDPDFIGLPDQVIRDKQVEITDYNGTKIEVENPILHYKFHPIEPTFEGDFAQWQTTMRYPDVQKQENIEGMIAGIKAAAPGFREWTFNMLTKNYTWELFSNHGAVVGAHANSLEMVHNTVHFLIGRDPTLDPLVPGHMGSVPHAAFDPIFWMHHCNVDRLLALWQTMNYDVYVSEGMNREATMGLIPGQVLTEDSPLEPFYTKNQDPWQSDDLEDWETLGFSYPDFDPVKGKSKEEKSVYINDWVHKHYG
SMILES,ABTS+• scavenging activity (% inhibition) [1],IC50 (mushroom tyrosinase; [8]),IC50 (mushroom tyrosinase; [9]),further results
"COc1ccc(-c2nc3cc(C)ccc3o2)c(OC)c1 [Compound 12, 2-(2,4-Dimethoxyphenyl)-5-methylbenzo[d]oxazole]",less than 5%,> 200 µM,> 200 µM,
"Oc1ccc(-c2nc3ccc(Cl)cc3o2)cc1O [Compound 10, 4-(6-Chlorobenzo[d]oxazol-2-yl)benzene-1,2-diol]",81%,> 200 µM,59 ± 4.74 µM,ROS scavenging activity [2]: strong to moderate ROS-scavenging activity; DPPH radical scavenging activity [3]: 86%
"COc1ccc(-c2nc3cc(C)ccc3o2)cc1O [Compound 14, 2-Methoxy-5-(5-methylbenzo[d]oxazol-2-yl)phenol]",,> 200 µM,146 ± 16.4 µM,
"COc1ccc(-c2nc3ccc(Cl)cc3o2)c(OC)c1 [Compound 7, 6-Chloro-2-(2,4-dimethoxyphenyl)benzo[d]oxazole]",less than 5%,> 200 µM,> 200 µM,
"COc1ccc(-c2nc3ccc(Cl)cc3o2)cc1O [Compound 9, 5-(6-Chlorobenzo[d]oxazol-2-yl)-2-methoxyphenol]",,> 200 µM,> 200 µM,
"Cc1ccc2oc(-c3ccc(O)c(O)c3)nc2c1 [Compound 15, 4-(5-Methylbenzo[d]oxazol-2-yl)benzene-1,2-diol]",83%,> 200 µM,80.3 ± 5.24 µM,ROS scavenging activity [2]: strong ROS scavenging efficacy comparable to that of Trolox; DPPH radical scavenging activity [3]: 86%
"Cc1ccc2oc(-c3ccc(O)cc3)nc2c1 [Compound 11, 4-(5-Methylbenzo[d]oxazol-2-yl)phenol]",,> 200 µM,76.8 ± 3.84 µM,
"Oc1ccc(-c2nc3ccc(Cl)cc3o2)cc1 [Compound 6, 4-(6-Chlorobenzo[d]oxazol-2-yl)phenol]",,> 200 µM,57.5 ± 8.78 µM,
"Cc1ccc2nc(-c3ccc(O)c(O)c3)oc2c1 [Compound 5, 4-(6-Methylbenzo[d]oxazol-2-yl)benzene-1,2-diol]",13%,187 ± 30.3 µM,144 ± 3.1 µM,ROS scavenging activity [2]: strong ROS scavenging efficacy; DPPH radical scavenging activity (in words) [3]: weak DPPH radical scavenging effect
"Cc1ccc2nc(-c3ccc(O)cc3)oc2c1 [Compound 1, 4-(6-Methylbenzo[d]oxazol-2-yl)phenol]",,> 200 µM,153 ± 14.3 µM,
"COc1ccc(-c2nc3ccc(C)cc3o2)cc1O [Compound 4, 2-Methoxy-5-(6-methylbenzo[d]oxazol-2-yl)phenol]",,> 200 µM,> 200 µM,
"Cc1c(C)c2c(c(C)c1O)CCC(C)(C(=O)O)O2 (centres unmarked) [Trolox, reference compound]",99%,,,ROS scavenging activity [2]: most potent ROS scavenging activity
"O=C1O[C@H]([C@@H](O)CO)C(O)=C1O [L-ascorbic acid, reference compound]",,,,DPPH radical scavenging activity [3]: 96%
"COc1ccc(-c2nc3ccc(C)cc3o2)c(OC)c1 [Compound 2, 2-(2,4-Dimethoxyphenyl)-6-methylbenzo[d]oxazole]",less than 5%,> 200 µM,> 200 µM,
"O=c1cc(CO)occ1O [kojic acid, Kojic acid, reference compound]",,,,"melanin content of zebrafish larvae, vs untreated control (100%) (zebrafish larvae [4]): 53%; melanin formation, in situ tyrosinase activity in B16F10 cells [5]: markedly decreased melanin formation; depigmentation effect on zebrafish larvae (photographs) (zebrafish larvae [6]): reduced pigmentation in all regions except the eyes; pigmentation area of zebrafish larvae (CS analyzer) (zebrafish larvae [6]): decreased the pigmentation area compared to the control; % tyrosinase activity in zebrafish larvae, vs untreated control (100%) [7]: 57%"
